Patent US20090306122A1, “SUBSTITUTED TETRAHYDROPYRROLOQUINOLINE DERIVATIVES AS KINASE MODULATORS, ESPECIALLY OF TYROSINE AND RAF KINASES” (priority 2005, published 2009)

Each compound was assayed against T1, IGF1-R kinase (Homo sapiens, UniProt P08069) (assay: Assay for the determination of IGF1-R kinase inhibition (AlphaScreen)). Settings: ATP 1 μM, biotinylated poly Glu, Tyr 4:1.
T1 construct: purchased ProQinase
T1 sequence (P08069 31-1367): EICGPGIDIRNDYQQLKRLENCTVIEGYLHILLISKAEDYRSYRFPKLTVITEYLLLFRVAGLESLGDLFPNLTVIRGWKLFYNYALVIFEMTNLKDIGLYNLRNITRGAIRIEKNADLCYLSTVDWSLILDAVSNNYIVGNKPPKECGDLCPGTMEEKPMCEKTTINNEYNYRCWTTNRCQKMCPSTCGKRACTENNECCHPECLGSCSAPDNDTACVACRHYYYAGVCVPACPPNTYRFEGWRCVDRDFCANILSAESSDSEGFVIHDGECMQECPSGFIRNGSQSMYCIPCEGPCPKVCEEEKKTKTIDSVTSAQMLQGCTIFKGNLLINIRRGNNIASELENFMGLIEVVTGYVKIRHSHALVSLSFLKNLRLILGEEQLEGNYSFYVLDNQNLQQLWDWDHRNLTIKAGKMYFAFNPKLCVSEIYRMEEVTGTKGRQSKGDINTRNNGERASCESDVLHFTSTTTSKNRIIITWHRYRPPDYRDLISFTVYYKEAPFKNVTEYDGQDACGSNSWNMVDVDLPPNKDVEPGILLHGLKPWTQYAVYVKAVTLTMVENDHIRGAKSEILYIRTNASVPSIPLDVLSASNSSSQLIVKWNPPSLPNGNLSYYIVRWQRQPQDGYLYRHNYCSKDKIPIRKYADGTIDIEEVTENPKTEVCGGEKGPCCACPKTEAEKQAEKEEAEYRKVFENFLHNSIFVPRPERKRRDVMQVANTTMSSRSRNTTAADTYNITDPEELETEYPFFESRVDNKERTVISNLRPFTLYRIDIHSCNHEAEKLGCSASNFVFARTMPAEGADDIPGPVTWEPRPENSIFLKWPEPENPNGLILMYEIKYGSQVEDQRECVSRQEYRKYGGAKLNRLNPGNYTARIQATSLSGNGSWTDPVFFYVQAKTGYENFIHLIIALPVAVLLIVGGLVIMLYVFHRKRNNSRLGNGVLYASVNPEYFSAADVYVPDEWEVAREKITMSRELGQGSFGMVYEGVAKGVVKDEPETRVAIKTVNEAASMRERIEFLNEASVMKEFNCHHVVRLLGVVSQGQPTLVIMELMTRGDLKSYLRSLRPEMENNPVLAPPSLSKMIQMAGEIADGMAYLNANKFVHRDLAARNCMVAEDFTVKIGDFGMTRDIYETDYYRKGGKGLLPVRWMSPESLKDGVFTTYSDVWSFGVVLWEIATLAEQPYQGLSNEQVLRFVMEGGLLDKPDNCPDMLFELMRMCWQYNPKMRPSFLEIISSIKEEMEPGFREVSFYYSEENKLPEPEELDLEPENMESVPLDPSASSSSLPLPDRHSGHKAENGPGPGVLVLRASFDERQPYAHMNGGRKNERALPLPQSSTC
Type: biochemical
Source text: Assay for the Determination of IGF1-R Kinase Inhibition
Lit.: G. Warner et al., Current Medicinal Chemistry, 2004, 11, 721-730
Use is made of AlphaScreen technology [(Amplified Luminescent Proximity Homogenous Assay), PerkinElmer], which is based on the amplification of a signal generated on interaction of so-called donor and acceptor beads. The convergence of two molecules can be measured very sensitively via this system.
The AlphaScreen test is based on traditional kinase tests, with the exception that the kinase activity is detected non-radioactively.
The binding of molecules which have been captured on the beads results in energy transfer from one bead to the other, which ultimately results in a luminescence/fluorescence signal.
In the absence of IGF1-R kinase activity, no signal is detected.
The kinase phosphorylates the biotinylated polypeptide (poly Glu, Tyr, 4:1) on the tyrosine.
The phosphorylated biotinylated peptide binds to streptavidin donor beads (biotin-streptavidin binding). The anti-phospho-tyrosine P-Tyr-100 antibody bound to the acceptor beads binds to phospho-tyrosine via the antigen binding site, giving a complex of:
Donor bead-streptavidin <->biotin-phosphopeptide (P substrate)<->antiphospho antibody-acceptor bead
If light having a wavelength of 680 nm is incident, the donor beads produce singlet oxygen, which, on adequate spatial proximity of the acceptor beads (only on formation of complex), causes the latter to emit at 520/620 nm.
Test procedure: the test is carried out in a 384-well OptiPlate™-384 Art.: 6007290 from Perkin Elmer
IGF1-R, enzyme from “ProQinase” • IGF1-R, 20 μl • Final concentration: 0.5 ng of kinase/well • (in 50 mM MOPS assay buffer pH 7.0 (comprising 0.20 mM • EDTA; 5.0 mM MnCl2; 10 mM MgCl2; 0.002% of BriJ; 0.002% of 2-mercaptoethanol and 0.1% of BSA) • +Test substance or standard sample, 3.0 μl • are pipetted into MTP well, shaken briefly and pre-incubated.
Pre-incubation: 30 minutes at RT (with continuous gentle shaking)
ATP/biotinylated substrate mix, 10 μl is added • ATP adenosine 5′-triphosphate, disodium salt (Calbiochem)/biotinylated poly Glu, Tyr, 4:1 (from Perkin Elmer) • Final concentration of ATP: 1 μM • Final concentration of biotinylated poly Glu, Tyr, 4:1:1 nM • Shake briefly and incubate. • Incubation: 45 minutes at RT (with continuous gentle shaking) 3. • Beads, P-Tyr-100 acceptor beads; antiphosphotyrosine (P-Tyr-100) acceptor beads • and simultaneously Streptavidin donor beads, 20 μl, are pipetted into well in a darkened room and shaken briefly. • Final concentration: 5 μg/ml of beads • Acceptor/donor beads are prepared shortly in advance in AlphaScreen detection/stop buffer (25 mM HEPES buffer comprising 100 mM NaCl, 0.1% of BSA, 100 mM EDTA). • This is followed by • Incubation: 20 hours at RT in the dark • Measurement: on the fusion a screen in Alpha programme 1 sec.
With `Cc1cccc(C2CC(N3CCCC3=O)c3cccc4c3N2CC4)c1` (centres unmarked) [Compound 10] the IC50 was 3.6 µM.
Work on `CCOc1ccccc1C1CC(N2CCCC2=O)c2cccc3c2N1CC3` (centres unmarked) [Compound 26] yielded an IC50 of 1.4 µM.
Work on `O=C1CCCN1C1CC(c2cccc(-c3ccc(C(F)(F)F)cc3)c2)N2CCc3cccc1c32` (centres unmarked) [Compound 43] yielded an IC50 of 7.4 µM.
`O=C1CCCN1C1CC(c2cccc(Br)c2)N2CCc3cccc1c32` (centres unmarked) [Compound 3] showed an IC50 of 1.3 µM.
In the case of `O=C1CCCN1C1CC(c2ccc(Br)cc2F)N2CCc3cccc1c32` (centres unmarked) [Compound 18], the IC50 is reported as 2.1 µM.
In the case of `CCOc1ccc(C2CC(N3CCCC3=O)c3cccc4c3N2CC4)c(OCC)c1C` (centres unmarked) [Compound 35], the IC50 is reported as 3.5 µM.
`CC(C)(C)OC(=O)Oc1ccc(C2CC(N3CCCC3=O)c3cccc4c3N2CC4)cc1` (centres unmarked) [Compound 21] showed an IC50 of 1.8 µM.
`O=C1CCCN1C1CC(c2ccccc2Cl)N2CCc3cc(F)cc1c32` (centres unmarked) [Compound 41] showed an IC50 of 4.5 µM.
For `COc1ccccc1C1CC(N2CCCC2=O)c2cccc3c2N1CC3` (centres unmarked) [Compound 32], the IC50 was 6 µM.
With `COc1cc(C2CC(N3CCCC3=O)c3cccc4c3N2CC4)ccc1OC(=O)OC(C)(C)C` (centres unmarked) [Compound 36] the IC50 was 0.93 µM.
Compound `CCCc1ccc(C2CC(N3CCCC3=O)c3cccc4c3N2CC4)cc1` (centres unmarked) [Compound 11] has an IC50 of 3.5 µM.
For `O=C1CCCN1C1CC(c2cc(C(F)(F)F)cc(C(F)(F)F)c2)N2CCc3cccc1c32` (centres unmarked) [Compound 13], the IC50 was 5.69 µM.
Work on `O=C1CCCN1C1CC(c2cc(F)cc(C(F)(F)F)c2)N2CCc3cccc1c32` (centres unmarked) [Compound 20] yielded an IC50 of 10 µM.
`COc1ccc(OC)c(C2CC(N3CCCC3=O)c3cccc4c3N2CC4)c1` (centres unmarked) [Compound 27] was tested, and the IC50 was 2.1 µM.
With `O=C1CCCN1C1CC(c2ccccc2F)N2CCc3cccc1c32` (centres unmarked) [Compound 15] the IC50 was 1.5 µM.
`O=C1CCCN1C1CC(c2cccc3c2OCO3)N2CCc3cccc1c32` (centres unmarked) [Compound 34] gave an IC50 of 4.8 µM.
For `O=C1CCCN1C1CC(c2ccc(Cl)cc2Cl)N2CCc3cccc1c32` (centres unmarked) [Compound 23], the IC50 was 4 µM.
Work on `O=C1CCCN1C1CC(c2cccc(-c3ccc(F)cc3)c2)N2CCc3cccc1c32` (centres unmarked) [Compound 42] yielded an IC50 of 5.5 µM.
`O=C1CCCN1C1CC(c2cccc(-c3cccc(OC(F)(F)F)c3)c2)N2CCc3cccc1c32` (centres unmarked) [Compound 44] showed an IC50 of 21 µM.
With `O=C(O)c1ccc(C2CC(N3CCCC3=O)c3cccc4c3N2CC4)cc1` (centres unmarked) [Compound 45] the IC50 was 14 µM.
Compound `CCc1ccc(C2CC(N3CCCC3=O)c3cccc4c3N2CC4)cc1` (centres unmarked) [Compound 5] has an IC50 of 2.2 µM.
`O=C1CCCN1C1CC(c2cccc(C(F)(F)F)c2)N2CCc3cccc1c32` (centres unmarked) [Compound 7] was tested, and the IC50 was 4.5 µM.
Compound `O=C1CCCN1C1CC(c2ccccc2Br)N2CCc3cccc1c32` (centres unmarked) [Compound 12] has an IC50 of 2.5 µM.
For `COc1cccc(C2CC(N3CCCC3=O)c3cccc4c3N2CC4)c1OC` (centres unmarked) [Compound 25], the IC50 was 0.19 µM.
`Cc1ccc(C2CC(N3CCCC3=O)c3cccc4c3N2CC4)cc1[N+](=O)[O-]` (centres unmarked) [Compound 19] gave an IC50 of 3.3 µM.
In the case of `O=C1CCCN1C1CC(c2ccccc2OCc2ccccc2)N2CCc3cccc1c32` (centres unmarked) [Compound 29], the IC50 is reported as 1.1 µM.
`COc1cccc(C2CC(N3CCCC3=O)c3cc(F)cc4c3N2CC4)c1` (centres unmarked) [Compound 1, 6-(2-oxopyrrolidin-1-yl)-8-fluoro-4-(3-methoxyphenyl)-1,2,5,6-tetrahydro-4H-pyrrolo[3,2,1-ij]quinoline] showed an IC50 of 29 µM.
Work on `O=C1CCCN1C1CC(c2ccc(-c3ccccc3[N+](=O)[O-])o2)N2CCc3cccc1c32` (centres unmarked) [Compound 37] yielded an IC50 of 0.26 µM.
`O=C1CCCN1C1CC(c2cc(F)cc(F)c2)N2CCc3cccc1c32` (centres unmarked) [Compound 24] was tested, and the IC50 was 3.3 µM.
`Cc1ccc(C2CC(N3CCCC3=O)c3cccc4c3N2CC4)cc1` (centres unmarked) [Compound 17] was tested, and the IC50 was 2.6 µM.
`COc1cccc(C2CC(N3CCCC3=O)c3cccc4c3N2CC4)c1` (centres unmarked) [Compound 31] showed an IC50 of 2 µM.
With `CC(C)(C)c1ccc(C2CC(N3CCCC3=O)c3cccc4c3N2CC4)cc1` (centres unmarked) [Compound 8] the IC50 was 1.6 µM.
`COc1cccc(C2CC(N(C)C(C)=O)c3cccc4c3N2CC4)c1` (centres unmarked) [Compound 38] gave an IC50 of 2.1 µM.
Compound `O=C1CCCN1C1CC(c2cccc(Cl)c2Cl)N2CCc3cccc1c32` (centres unmarked) [Compound 2] has an IC50 of 5 µM.
In the case of `O=C1CCCN1C1CC(c2cccc(OCc3ccccc3)c2)N2CCc3cccc1c32` (centres unmarked) [Compound 30], the IC50 is reported as 2.8 µM.
For `CC(C)c1ccc(C2CC(N3CCCC3=O)c3cccc4c3N2CC4)cc1` (centres unmarked) [Compound 9], the IC50 was 2 µM.
`O=C1CCCN1C1CC(c2cccc(Cl)c2)N2CCc3cccc1c32` (centres unmarked) [Compound 6] showed an IC50 of 2.9 µM.
`COc1cccc(OC)c1C1CC(N2CCCC2=O)c2cccc3c2N1CC3` (centres unmarked) [Compound 28] gave an IC50 of 2.1 µM.
For `O=C1CCCN1C1CC(c2ccc(Cl)cc2F)N2CCc3cccc1c32` (centres unmarked) [Compound 4], the IC50 was 1.5 µM.
With `COc1ccc(Oc2cccc(C3CC(N4CCCC4=O)c4cccc5c4N3CC5)c2)cc1` (centres unmarked) [Compound 33] the IC50 was 2.1 µM.
With `O=C1CCCN1C1CC(c2ccc(Cl)c([N+](=O)[O-])c2)N2CCc3cccc1c32` (centres unmarked) [Compound 14] the IC50 was 6 µM.
`O=C1CCCN1C1CC(c2ncc(C(F)(F)F)cc2Cl)N2CCc3cccc1c32` (centres unmarked) [Compound 22] gave an IC50 of 1.7 µM.
`O=C1CCCN1C1CC(c2ccccc2Cl)N2CCc3cccc1c32` (centres unmarked) [Compound 16] was tested, and the IC50 was 3.1 µM.
For `O=C1CCCN1C1CC(c2cccc(OCc3ccccc3)c2)N2CCc3cc(F)cc1c32` (centres unmarked) [Compound 40], the IC50 was 2.7 µM.
